Here are results for twelve molecules from patent US20060083680A1, “Diphenyl ether derivatives and their use for imaging serotonin transporters” (The Trustees of the University of Pennsylvania, priority 2004, published 2006).

Structures are written as SMILES. Values joined by “and” are separate entries in the source; they are usually repeats but may differ in a detail not shown here. Equal entries are not always repeated. “Also recorded” adds a separate entry of the source. Where two headings read alike, the source gives them in different places. Where only a bound is given, the exact number is not on record here.

The target of series [1] is T1, SERT binding sites (Rattus norvegicus, UniProt P31652).
T1 construct: from tissue; host or cells: rat brain in vivo (hypothalamus, cortex, striatum, hippocampus, cerebellum); ex vivo brain sections
In words: In vivo competitive binding / blocking of [^125I]4 regional uptake. The conditions noted are these: rats, drug 2 mg/kg i.v. 5 min prior to tracer, 120 min after [^125I]4. The source says:
The reduction of regional specific binding in the drug-pretreated rats was compared to the control animals with saline pretreatment.

In series [2] the target is T2, SERT (serotonin transporter) (Rattus norvegicus, UniProt P31652).
T2 construct: membrane homogenates
Nature of the series: In vitro binding assay, membranes of LLC-PK1 cells expressing SERT, [^125I]IDAM. The protocol: (§1) Preparation of membrane homogenates: LLC-PK1 cells from pig kidney permanently expressing DAT, NET and SERT, respectively (LLC-DAT, LLC-NET and LLC-SERT) were kindly provided by Dr. G. Rudnick at Yale University. These cells were grown to confluence as a monolayer on 15 cm petri dish as reported previously. […] Cells were then washed once with phosphate buffer saline (w/ Ca^2+ and Mg^2+) (Bio-Whittaker) and harvested with 10 mL PBS by scraping. The cell suspensions were homogenized on ice for 20 strokes and centrifuged at 17,000 rpm for 20 min at 4° C. The pellets were re-suspended in PBS, frozen quickly in liquid N2 and stored in a −70° C. freezer.
(§2) Binding assays: Binding assays were performed in a final volume of 0.2 mL. […] Incubation was carried out for one h at room temperature and the bound ligand was collected on glass fiber filters (Schleicher & Schuell No. 25, Keene, N.H.) presoaked with 1% polyethylenimine (Sigma, St. Louis, Mo.) and counted in a gamma counter (Packard 5000). Results of competition experiments were subjected to nonlinear regression analysis using EBDA (Elsevier-BIOSOFT, Cambridge, UK).

In series [3] the target is T3, DAT (dopamine transporter) (Rattus norvegicus, UniProt P23977).
T3 construct: membrane homogenates
In words: In vitro binding assay, membranes of LLC-PK1 cells expressing DAT, [^125I]IPT. Here is the method:
as §1, §2

Series [4] has as its target T4, NET (norepinephrine transporter) (Homo sapiens, UniProt P23975).
T4 construct: membrane homogenates
Nature of the series: In vitro binding assay, membranes of LLC-PK1 cells expressing NET, [^125I]IPT. Here is the method:
as §1, §2

A short description of series [5]: Partition coefficient 1-octanol/buffer. The following applies: 1-octanol/buffer pH 7.4, 0.1 M phosphate. The format is physicochemical. The protocol:
The test tube was vortexed for 3 min at room temperature, then centrifuged for 5 min. Two weighed samples (2 g each) from the 1-octanol and buffer layers were counted in a well counter. The partition coefficient was determined by calculating the ratio of cpm/g of 1-octanol to that of buffer. Samples from the 1-octanol layer were re-partitioned until consistent partition coefficient values were obtained. The measurement was repeated 3 times.

Series [6] can be described thus: Biodistribution in rats after iv injection (organs). The format is in vivo. Here is the method:
Biodistribution in rats: Three rats per group were used for each biodistribution study. While under ether anesthesia, 0.2 mL of a saline solution containing 10 μCi of radioactive tracer was injected into the femoral vein. The rats were sacrificed at the time indicated by cardiac excision while under ether anesthesia. Organs of interest were removed and weighed, and the radioactivity was counted. The percent dose per organ was calculated by a comparison of the tissue counts to counts of 1% of the initial dose (100 times diluted aliquots of the injected material) measured at the same time.

The target in series [7] is T5, serotonin transporters (Rattus norvegicus, UniProt P31652).
T5 construct: from tissue; host or cells: rat brain in vivo (hypothalamus, cortex, striatum, hippocampus, cerebellum); ex vivo brain sections
Nature of the series: Regional brain distribution and specific binding ratio in rats. It counts as in vivo. Here is the method: Regional brain distribution in rats was measured after an i.v. injection of the radioactive tracer. Samples from different brain regions: cortex (frontal plus occipital), striatum, hippocampus, cerebellum and hypothalamus were dissected, weighed and counted. The percentage dose/g of each sample was calculated by comparing sample counts with the counts of the diluted initial dose described above. The specific binding ratio in each region was obtained by dividing the % dose/gram values between region by that in the cerebellum ([region-cerebellum/cerebellum]). The cerebellum region containing little or no serotonin transporters was used as the background region.

The nature of series [8]: Stability of the radioactive material.
Series [9] concerns the target T1, SERT binding sites. Nature of the series: Ex vivo autoradiography of rat brain sections. The format is in vivo, rats. The following applies: rat, 2 mg/Kg 5 min prior to [^125I]4.
[10] abbreviates: LLC-PK1 cells expressing SERT, read-out: Ki SERT.

T2 sequence (P31652 whole entry): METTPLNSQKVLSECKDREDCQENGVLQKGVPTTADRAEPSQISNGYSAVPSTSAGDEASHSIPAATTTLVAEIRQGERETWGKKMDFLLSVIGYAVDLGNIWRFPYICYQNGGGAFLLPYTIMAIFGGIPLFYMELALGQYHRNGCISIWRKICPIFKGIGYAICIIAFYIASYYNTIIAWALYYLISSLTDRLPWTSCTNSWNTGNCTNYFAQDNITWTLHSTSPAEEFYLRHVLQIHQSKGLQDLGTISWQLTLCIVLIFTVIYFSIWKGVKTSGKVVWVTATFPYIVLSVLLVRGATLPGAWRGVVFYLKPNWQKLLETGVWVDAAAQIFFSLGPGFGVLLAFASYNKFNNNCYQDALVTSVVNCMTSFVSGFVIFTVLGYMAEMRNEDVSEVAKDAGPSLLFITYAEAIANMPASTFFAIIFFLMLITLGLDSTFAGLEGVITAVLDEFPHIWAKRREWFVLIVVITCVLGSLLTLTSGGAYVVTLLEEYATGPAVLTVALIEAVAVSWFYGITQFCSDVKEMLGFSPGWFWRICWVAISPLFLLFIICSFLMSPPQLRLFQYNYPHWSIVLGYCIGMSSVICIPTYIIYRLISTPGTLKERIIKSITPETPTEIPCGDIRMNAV
T5 sequence (P31652 whole entry): as above
T1 sequence (P31652 whole entry): as above
T4 sequence (P23975 whole entry): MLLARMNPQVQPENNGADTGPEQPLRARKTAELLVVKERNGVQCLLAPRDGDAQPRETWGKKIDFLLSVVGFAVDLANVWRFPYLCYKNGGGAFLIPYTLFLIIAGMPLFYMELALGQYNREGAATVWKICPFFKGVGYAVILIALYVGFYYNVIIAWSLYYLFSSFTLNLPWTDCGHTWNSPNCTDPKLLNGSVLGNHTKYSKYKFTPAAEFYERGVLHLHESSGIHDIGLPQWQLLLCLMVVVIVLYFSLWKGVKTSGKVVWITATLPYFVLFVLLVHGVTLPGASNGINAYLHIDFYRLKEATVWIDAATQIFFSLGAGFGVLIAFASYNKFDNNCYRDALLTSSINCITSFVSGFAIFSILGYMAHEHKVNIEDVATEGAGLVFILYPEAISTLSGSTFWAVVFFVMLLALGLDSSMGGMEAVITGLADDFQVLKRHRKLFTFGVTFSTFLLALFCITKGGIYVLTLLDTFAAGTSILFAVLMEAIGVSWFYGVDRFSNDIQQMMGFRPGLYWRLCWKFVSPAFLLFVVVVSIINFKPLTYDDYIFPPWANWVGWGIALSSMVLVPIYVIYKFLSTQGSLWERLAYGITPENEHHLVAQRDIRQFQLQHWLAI
T3 sequence (P23977 whole entry): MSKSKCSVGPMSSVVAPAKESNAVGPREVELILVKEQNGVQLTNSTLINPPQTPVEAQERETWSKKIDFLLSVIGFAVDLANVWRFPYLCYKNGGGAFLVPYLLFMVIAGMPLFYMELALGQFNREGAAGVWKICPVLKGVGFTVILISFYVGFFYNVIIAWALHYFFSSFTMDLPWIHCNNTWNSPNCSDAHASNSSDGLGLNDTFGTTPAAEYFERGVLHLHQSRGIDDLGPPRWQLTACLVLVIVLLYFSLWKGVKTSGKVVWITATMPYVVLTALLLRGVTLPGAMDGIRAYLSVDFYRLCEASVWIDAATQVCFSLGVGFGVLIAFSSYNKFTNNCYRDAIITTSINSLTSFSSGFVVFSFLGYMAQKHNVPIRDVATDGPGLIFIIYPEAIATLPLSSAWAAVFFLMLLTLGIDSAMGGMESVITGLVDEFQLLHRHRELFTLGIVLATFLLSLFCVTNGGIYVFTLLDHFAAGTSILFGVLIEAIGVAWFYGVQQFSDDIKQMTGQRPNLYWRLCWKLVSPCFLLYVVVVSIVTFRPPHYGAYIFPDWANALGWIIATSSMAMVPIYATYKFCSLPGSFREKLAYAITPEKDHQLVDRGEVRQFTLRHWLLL

In the case of `CCN1CCC[C@H]1CNC(=O)c1c(O)c(Cl)cc(Cl)c1OC` [raclopride], the “effect of pretreatment on specific binding/uptake of [^125I]4 in hypothalamus” value in [1] is listed as “did not show any significant effect”.
Same read-out and setting: as for `O=C(c1ccc(F)cc1)C1CCN(CCn2c(=O)[nH]c3ccccc3c2=O)CC1` [ketanserin], the entry is “did not show any significant effect”; as for `COC(=O)C(c1ccccc1)C1CCCCN1` (stereo not drawn) [methylphenidate], “did not show any significant effect”.
With `CN(C)Cc1ccccc1Oc1ccc(I)cc1N` [Compound 4, 2-(2-(Dimethylaminomethyl)phenoxy)-5-iodophenylamine], the Ki (in general, a measure of affinity in units of concentration, obtained from inhibition or displacement) amounted to 0.37 ± 0.11 nM in series [2], 309 ± 65 nM in [3] and 286 ± 36 nM in [4]. In addition, in series [2], the “selectivity for SERT over NET and DAT” value is “more than 500 fold”. Also, the Partition coefficient in [5] is given as 418. The “increase in brain uptake vs ADAM (3)” value in series [6] (2 and 4 h after i.v. injection) is “two to three-fold increase”. The results for the brain uptake in [6] (2 h after i.v. injection) and in series [6] (4 h after i.v. injection) were 1.08 % dose/brain and 0.33 % dose/brain, respectively. For the same molecule, the “hypothalamus uptake compared to other radioiodinated compounds” value in series [7] (60-240 min post i.v. injection) is “highest hypothalamus uptake among all of the radioiodinated compounds”. In [7] (between 2 and 4 h), the “higher uptake in hypothalamus than ADAM (3)” value was “more than 200%”. For the same molecule, the “Regional brain distribution HY (hypothalamus)” value in series [7] (iv, 120 min) is given as 0.92 % dose/g; in [7] (iv, 240 min) it was 0.32 % dose/g.
With `CN(C)Cc1ccccc1Sc1ccc(C#N)cc1N` [DASB, reference compound], the Ki in series [2] (setting [10]) is 1.1 ± 0.04 nM; in series [3], over 1000 nM.
With `CN(C)Cc1ccccc1Sc1ccc(I)cc1CO` [Compound 1, reference compound], the Ki in series [2] (setting [10]) is 0.097 ± 0.013 nM; in series [3] it was over 1000 nM; in series [4], 234 ± 26 nM.
For `CN(C)Cc1ccccc1Oc1ccc([125I])cc1N` [[^123I]4, [^125I][^123I]2-(2-(Dimethylaminomethyl)phenoxy)-5-iodophenylamine], in series [8] (after labeling), the stability after labeling worked out at 24 h.
For `CN(C)Cc1ccccc1Oc1ccc(I)cc1CO` [Compound 2, reference compound], the Ki in series [3] was over 1000 nM; in series [4], 20 ± 2 nM.
`CN(C)Cc1ccccc1Cc1ccc(I)cc1N` [Compound 5, 2-(2-(dimethylaminomethyl)benzyl)-5-iodophenylamine]: the Ki in series [2] (setting [10]) is 48.6 ± 4.1 nM; in series [3], over 1000 nM; in series [4], 17 ± 4 nM.
For `CN(C)Cc1ccccc1Sc1ccc([125I])cc1N` [[^125I]ADAM (3), reference compound], in series [5], the Partition coefficient came to 335.
With `CN(C)Cc1ccccc1Cc1ccc([125I])cc1N` [[^125I]5, 2-(2-(Dimethylaminomethyl)benzyl)-5-[^125I]iodophenylamine], the Partition coefficient in [5] is reported as 1,730. Also, the brain uptake in [6] (2 min post-injection) is 1.77 % dose and 1.77±0.049 % dose. Also, in series [7] (iv, 120 min), the “Ratio of (Region-Cerebellum)/Cerebellum, HY” value is 2.43. The “stability in a refrigerator” value in series [8] (refrigerator) is on record as “stable in a refrigerator at least for three weeks”.
In the case of `CSc1ccc([C@@H]2CN3CCC[C@@H]3c3ccccc32)cc1` [(+)McN5652], the “effect of pretreatment on specific binding/uptake of [^125I]4 in hypothalamus” value in series [1] is given as “completely eliminated the specific binding; also recorded: significantly blocked”. Further, the “effect of pretreatment on specific uptake of [^125I]4 in brain regions (autoradiography)” value in series [9] is listed as “totally eliminated”.
